{
  "source": "paper PMC3530927",
  "about": "(Journal of medicinal chemistry, 2012)",
  "key": {"[1]": {"molecular_target": "KCNQ2 channels (Homo sapiens, UniProt O43526)", "experiment": "KCNQ2 automated patch clamp assay", "type": "cell-based", "conditions": "for inhibition at 30 µM: read-out: KCNQ2 % at 30 μM (IC50 column, saturating response not obtained); for fold loss of potency: KCNQ2 inhibitor, compared to the unsubstituted phenyl group (5)"}, "[2]": {"experiment": ">300 assays performed within the MLPCN network", "conditions": "weakly active in each of four assays out of >300"}, "[3]": {"tested_on": "calcium channel, L-type", "experiment": "Ricerca Lead Profiling Screen radioligand binding"}, "[4]": {"experiment": "Snapshot in vivo PK, IP plasma and brain levels", "conditions": "brain, 10 mg/kg"}, "[5]": {"tested_on": "potassium channel (KATP)", "experiment": "Ricerca Lead Profiling Screen radioligand binding"}, "[6]": {"molecular_target": "calcium channel, N-type (Homo sapiens, UniProt Q00975)", "sequence (Q00975 whole entry)": "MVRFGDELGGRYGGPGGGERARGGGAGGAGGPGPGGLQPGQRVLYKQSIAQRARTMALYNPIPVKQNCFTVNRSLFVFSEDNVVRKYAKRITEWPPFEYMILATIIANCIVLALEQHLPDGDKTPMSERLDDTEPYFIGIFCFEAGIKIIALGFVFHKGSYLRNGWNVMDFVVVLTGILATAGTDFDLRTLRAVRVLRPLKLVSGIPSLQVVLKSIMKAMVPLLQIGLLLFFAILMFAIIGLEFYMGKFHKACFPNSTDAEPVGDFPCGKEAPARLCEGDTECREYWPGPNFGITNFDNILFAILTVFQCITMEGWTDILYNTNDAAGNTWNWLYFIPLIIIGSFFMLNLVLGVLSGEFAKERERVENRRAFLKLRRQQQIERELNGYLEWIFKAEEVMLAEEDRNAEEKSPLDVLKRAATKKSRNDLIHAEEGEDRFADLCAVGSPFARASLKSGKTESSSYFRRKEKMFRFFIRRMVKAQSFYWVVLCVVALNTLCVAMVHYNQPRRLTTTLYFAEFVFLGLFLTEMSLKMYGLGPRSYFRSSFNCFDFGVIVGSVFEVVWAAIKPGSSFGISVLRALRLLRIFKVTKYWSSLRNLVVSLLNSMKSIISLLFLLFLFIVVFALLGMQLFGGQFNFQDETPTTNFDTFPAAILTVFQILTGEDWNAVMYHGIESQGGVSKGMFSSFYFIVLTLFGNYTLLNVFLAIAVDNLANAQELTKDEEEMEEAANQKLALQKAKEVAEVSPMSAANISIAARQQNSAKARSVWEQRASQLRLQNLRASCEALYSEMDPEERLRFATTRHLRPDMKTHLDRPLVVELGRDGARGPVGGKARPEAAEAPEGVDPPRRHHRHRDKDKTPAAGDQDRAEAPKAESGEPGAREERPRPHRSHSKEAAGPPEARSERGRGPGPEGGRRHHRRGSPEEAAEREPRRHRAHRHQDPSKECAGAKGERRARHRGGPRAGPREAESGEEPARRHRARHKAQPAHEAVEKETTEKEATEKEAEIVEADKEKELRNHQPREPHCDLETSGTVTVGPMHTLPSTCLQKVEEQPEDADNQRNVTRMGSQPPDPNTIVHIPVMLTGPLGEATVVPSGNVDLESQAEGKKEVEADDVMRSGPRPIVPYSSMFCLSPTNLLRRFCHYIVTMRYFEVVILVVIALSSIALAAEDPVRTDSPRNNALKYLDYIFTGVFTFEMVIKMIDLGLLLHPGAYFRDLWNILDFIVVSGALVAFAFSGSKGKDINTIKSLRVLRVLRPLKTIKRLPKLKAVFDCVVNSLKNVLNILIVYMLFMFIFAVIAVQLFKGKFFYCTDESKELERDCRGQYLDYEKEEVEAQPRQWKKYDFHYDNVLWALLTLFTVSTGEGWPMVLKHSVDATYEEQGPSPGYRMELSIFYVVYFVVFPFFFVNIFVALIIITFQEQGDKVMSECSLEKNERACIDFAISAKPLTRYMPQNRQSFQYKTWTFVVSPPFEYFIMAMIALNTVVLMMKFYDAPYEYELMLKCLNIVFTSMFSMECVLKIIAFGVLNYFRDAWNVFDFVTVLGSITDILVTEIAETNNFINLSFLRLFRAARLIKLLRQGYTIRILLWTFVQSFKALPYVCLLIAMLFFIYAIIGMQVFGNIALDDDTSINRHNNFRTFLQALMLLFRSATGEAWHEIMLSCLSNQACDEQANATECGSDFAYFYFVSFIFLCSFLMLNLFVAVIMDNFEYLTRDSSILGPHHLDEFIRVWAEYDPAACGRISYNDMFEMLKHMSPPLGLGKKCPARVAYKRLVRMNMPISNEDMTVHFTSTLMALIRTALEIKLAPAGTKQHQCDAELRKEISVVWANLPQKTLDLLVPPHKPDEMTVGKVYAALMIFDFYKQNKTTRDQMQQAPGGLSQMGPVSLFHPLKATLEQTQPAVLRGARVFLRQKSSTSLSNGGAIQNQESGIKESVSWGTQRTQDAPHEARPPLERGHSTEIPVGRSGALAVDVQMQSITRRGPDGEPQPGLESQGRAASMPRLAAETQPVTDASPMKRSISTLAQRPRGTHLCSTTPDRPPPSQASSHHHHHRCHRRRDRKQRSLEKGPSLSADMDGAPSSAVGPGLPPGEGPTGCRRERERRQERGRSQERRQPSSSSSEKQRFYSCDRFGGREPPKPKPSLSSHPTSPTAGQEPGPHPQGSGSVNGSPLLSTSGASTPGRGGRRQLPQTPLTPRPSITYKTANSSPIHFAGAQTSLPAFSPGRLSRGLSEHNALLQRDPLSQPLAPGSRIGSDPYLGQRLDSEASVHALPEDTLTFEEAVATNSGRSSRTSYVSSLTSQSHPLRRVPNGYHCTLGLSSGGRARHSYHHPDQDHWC", "experiment": "Ricerca Lead Profiling Screen radioligand binding"}, "[7]": {"molecular_target": "potassium channel (hERG) (Homo sapiens, UniProt Q12809)", "sequence (Q12809 whole entry)": "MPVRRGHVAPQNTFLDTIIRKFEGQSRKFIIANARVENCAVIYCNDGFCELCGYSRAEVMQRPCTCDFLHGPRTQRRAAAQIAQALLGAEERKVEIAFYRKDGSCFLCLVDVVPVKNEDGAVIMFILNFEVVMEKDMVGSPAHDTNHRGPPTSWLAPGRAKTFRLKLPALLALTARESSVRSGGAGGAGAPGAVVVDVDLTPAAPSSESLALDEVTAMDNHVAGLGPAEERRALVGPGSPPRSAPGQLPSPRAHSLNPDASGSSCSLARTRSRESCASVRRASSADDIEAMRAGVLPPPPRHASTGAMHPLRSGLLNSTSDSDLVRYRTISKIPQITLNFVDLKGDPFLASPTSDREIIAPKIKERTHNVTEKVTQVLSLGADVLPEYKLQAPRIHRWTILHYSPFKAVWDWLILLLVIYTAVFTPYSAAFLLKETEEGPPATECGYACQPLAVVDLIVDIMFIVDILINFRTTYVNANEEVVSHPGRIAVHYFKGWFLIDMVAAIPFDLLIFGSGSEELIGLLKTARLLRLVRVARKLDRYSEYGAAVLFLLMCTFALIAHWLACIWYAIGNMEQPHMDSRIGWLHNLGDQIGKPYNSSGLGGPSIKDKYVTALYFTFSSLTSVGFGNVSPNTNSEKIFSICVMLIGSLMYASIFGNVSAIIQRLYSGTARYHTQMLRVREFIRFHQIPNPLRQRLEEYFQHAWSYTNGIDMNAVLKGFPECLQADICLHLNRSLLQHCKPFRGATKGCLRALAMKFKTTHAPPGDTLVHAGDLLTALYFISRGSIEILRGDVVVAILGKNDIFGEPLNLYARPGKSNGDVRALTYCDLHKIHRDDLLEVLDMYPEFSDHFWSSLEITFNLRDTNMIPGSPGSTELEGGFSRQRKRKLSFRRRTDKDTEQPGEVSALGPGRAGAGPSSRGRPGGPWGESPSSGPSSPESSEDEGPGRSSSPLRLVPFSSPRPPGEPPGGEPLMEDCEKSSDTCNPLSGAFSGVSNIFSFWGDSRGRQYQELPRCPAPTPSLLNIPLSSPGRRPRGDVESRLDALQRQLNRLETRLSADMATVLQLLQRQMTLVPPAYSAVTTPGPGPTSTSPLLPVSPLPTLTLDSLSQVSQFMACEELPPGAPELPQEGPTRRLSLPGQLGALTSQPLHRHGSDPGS", "experiment": "Ricerca Lead Profiling Screen radioligand binding"}, "[8]": {"experiment": "Intrinsic clearance", "type": "in vitro ADME", "conditions": "rat hepatic microsomes"}, "[9]": {"conditions": "KCNQ2, common assay system (PubChem AID: 588426) vs reported values"}},
  "data": [
    {"compound": "CCC(C(=O)Nc1ccccc1N(C)C)c1ccccc1", "note": "(stereo not drawn) [compound 56]", "values": [
      {"measurement": "inhibition at 30 µM", "setting": "[1]", "value": 59.8, "unit": "%"}
    ]},
    {"compound": "O=C(Nc1ccccc1N1CCCC1)C1(c2ccccc2)CC1", "note": "[compound 14]", "values": [
      {"measurement": "KCNQ2 activity (in words)", "setting": "[1]", "value": "not tolerated"}
    ]},
    {"compound": "O=C(Cc1cccc(Cl)c1)Nc1ccccc1N1CCCCC1", "note": "[compound 49]", "values": [
      {"measurement": "KCNQ2 activity (in words)", "setting": "[1]", "value": "loss of activity"}
    ]},
    {"compound": "CC(C)(C(=O)Nc1ccccc1N1CCCC1)c1ccccc1", "note": "[compound 15]", "values": [
      {"measurement": "KCNQ2 activity (in words)", "setting": "[1]", "value": "not tolerated"}
    ]},
    {"compound": "O=C1c2ccccc2C(Cc2ccncc2)(Cc2ccncc2)c2ccccc21", "note": "[compound 1, XE-991, reference compound]", "values": [
      {"measurement": "fold more potent compared to previous values", "setting": "[1]; [9]", "value": "8 – 10 fold"}
    ]},
    {"compound": "c1ccc(C(NCc2cccnc2)(c2ccccc2)c2ccccc2)cc1", "note": "[compound 3, UCL2077, reference compound]", "values": [
      {"measurement": "fold less potent compared to previous values", "setting": "[1]; [9]", "value": "~ 7 fold"}
    ]},
    {"compound": "CCC(NC(=O)c1ccccc1N1CCCC1)c1ccccc1", "note": "(stereo not drawn) [compound 17]", "values": [
      {"measurement": "KCNQ2 activity (in words)", "setting": "[1]", "value": "complete loss of activity"},
      {"measurement": "inhibition at 30 µM", "setting": "[1]", "value": 38, "unit": "%"}
    ]},
    {"compound": "O=C(Cc1cccc(Cl)c1)Nc1cccc(N2CCCC2)c1", "note": "[compound 45]", "values": [
      {"measurement": "fold loss of activity", "setting": "[1]; KCNQ2 activator series, 3-pyrrolidine vs 2-pyrrolidine", "value": "~ 5 fold"}
    ]},
    {"compound": "O=C1N(c2ccccc2)c2ccccc2C1(Cc1ccncc1)Cc1ccncc1", "note": "[compound 2, Linopirdine, reference compound]", "values": [
      {"measurement": "fold more potent compared to previous values", "setting": "[1]; [9]", "value": "8 – 10 fold"}
    ]},
    {"compound": "O=C(Nc1ccccc1N1CCCC1)C1CCOc2ccccc21", "note": "(stereo not drawn) [compound 16]", "values": [
      {"measurement": "KCNQ2 activity (in words)", "setting": "[1]", "value": "not tolerated"}
    ]},
    {"compound": "CCC(C(=O)Nc1ccccc1N1CCCCC1)c1ccccc1", "note": "(stereo not drawn) [compound 48]", "values": [
      {"measurement": "KCNQ2 activity (in words)", "setting": "[1]", "value": "loss of activity"},
      {"measurement": "inhibition at 30 µM", "setting": "[1]", "value": 32, "unit": "%"}
    ]},
    {"compound": "CCC(C(=O)N(C)c1ccccc1N1CCCC1)c1ccccc1", "note": "(stereo not drawn) [compound 18]", "values": [
      {"measurement": "KCNQ2 activity (in words)", "setting": "[1]", "value": "complete loss of activity"}
    ]},
    {"compound": "CCC(C(=O)Nc1ccccc1N1CCCC1)c1ccccc1Cl", "note": "(stereo not drawn) [compound 30]", "values": [
      {"measurement": "fold loss of potency", "setting": "[1]", "value": 20, "unit": "fold"}
    ]},
    {"compound": "CCC(C(=O)Nc1ccccc1N1CCCC1)c1ccccc1", "note": "(stereo not drawn) [compound 5]", "values": [
      {"measurement": "activity in four MLPCN assays not dependent on KCNQ2", "setting": "[2]", "value": "> 15", "unit": "µM"}
    ]},
    {"compound": "CCC(C(=O)Nc1ccccc1N1CCCC1)c1ccc(OC)c(OC)c1", "note": "(stereo not drawn) [compound 19]", "values": [
      {"measurement": "fold loss of potency", "setting": "[1]", "value": 125, "unit": "fold"}
    ]},
    {"compound": "CCC(C(=O)Nc1ccccc1OC)c1ccccc1", "note": "(stereo not drawn) [compound 63]", "values": [
      {"measurement": "inhibition at 30 µM", "setting": "[1]", "value": 28.1, "unit": "%"}
    ]},
    {"compound": "CC[C@H](C(=O)Nc1ccccc1N1CCCC1)c1ccccc1", "note": "[(S)-5, (S)-2-Phenyl-N-(2-(pyrrolidin-1-yl)phenyl)butanamide]", "values": [
      {"measurement": "calcium channel L-type binding (in words)", "setting": "[3]", "value": "not inhibited"},
      {"measurement": "concentration at 1 h", "setting": "[4]", "value": 672, "unit": "nM"},
      {"measurement": "potassium channel KATP binding (in words)", "setting": "[5]", "value": "not inhibited"},
      {"measurement": "calcium channel N-type binding (in words)", "setting": "[6]", "value": "not inhibited"},
      {"measurement": "potassium channel hERG binding (in words)", "setting": "[7]", "value": "not inhibited"},
      {"measurement": "Rat CLHEP", "setting": "[8]", "value": 67.3, "unit": "mL/min/kg"}
    ]},
    {"compound": "CCC(C(=O)Nc1ccccc1N(C)Cc1ccccc1)c1ccccc1", "note": "(stereo not drawn) [compound 64]", "values": [
      {"measurement": "inhibition at 30 µM", "setting": "[1]", "value": 27.1, "unit": "%"}
    ]},
    {"compound": "CC(C)C(C(=O)Nc1ccccc1N1CCCC1)c1ccccc1", "note": "(stereo not drawn) [compound 9]", "values": [
      {"measurement": "KCNQ2 activity (in words)", "setting": "[1]", "value": "not tolerated"},
      {"measurement": "inhibition at 30 µM", "setting": "[1]", "value": 25.4, "unit": "%"}
    ]}
  ]
}
